Experimental data from US20150374705A1, “Substances for treatment or relief of pain” (Shanghai Institues for Biological Sciences, priority 2012, published 2015).
“Also recorded” adds a separate entry of the source. Where two headings read alike, the source gives them in different places.

Experiments:
[1] = system: CFA induced inflammatory pain model rats (heat pain); assay: CFA induced inflammatory pain model, heat pain threshold; type: in vivo; conditions: rat
[2] = target: T1, Human recombinant α5-GABAA receptor (Homo sapiens, UniProt P18507+P31644); conditions: Jones et al. 2006; cited from earlier work
T1 construct: expressed in transfected cells; host or cells: 293 cell line

[3] = system: SNI model rats (neuropathic pain); assay: Spared nerve injury (SNI) model, neuropathic pain, mechanical pain threshold; type: in vivo; conditions: rat; for Suppression of neuropathic pain (nociceptive threshold): 3 mg/kg injection, 0.5-24 hours after administration; for Suppression of neuropathic pain (nociceptive threshold) / Tolerance on continuous administration: 14 days after SNI; for Tolerance on continuous administration: continuous injection for 6 days, measured 1-3 hours after administration
Procedure, shortened: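 Male SD rats (200-250 g, n=6) with spared nerve injury (tibial and common peroneal ligated and cut, sural spared) were tested blind. Von Frey filaments (1-50 g) on the plantar paw gave the 50% withdrawal threshold. Compounds in 70% PEG400 were injected at 2-3 mg/kg; MRK016-M3 in 90% PEG400 was given orally at 0.3-10 mg/kg; unpaired t-test.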

[4] = system: α5-GABAA receptor in central nervous system; conditions: in vivo, Jones et al. 2006; cited from earlier work
[5] = system: brain microvessel endothelial cells co-cultivated with astrocyte; assay: In vitro blood-brain barrier model (BBBM); type: in vitro ADME
From the text: Through in vitro blood-brain barrier model (BBBM), whether the substance to be measured could effectively pass blood brain barrier was detected. In this experiment, brain microvessl endothelial cells were co-cultivated with astrocyte, and then whether the substance to be measured could effectively pass cellular membrane was detected. For detailed method, please refer to related literature (Culot M et al., An in vitro blood-brain barrier model for high throughput (HTS) toxicological screening. Toxicol In Vitro. 2008 April; 22(3):799-811).

[6] = human, Phase II, cited from earlier work
[7] = system: rat model of inflammatory and neuropathic pain; conditions: Munro G et al., Neuropharmacology 2011; cited from earlier work
[8] = target: T2, Human recombinant GABAA receptor containing α2 subunit (α2, β3, γ2) (Homo sapiens, UniProt P18507+P47869); assay: Competitive radioligand binding ([3H]Ro-0151788) on membranes of 293 cells, Ki; conditions: human recombinant GABAA subtype containing α2; read-out: Affinity, nM (α2)
T2 construct: expressed in transfected cells; host or cells: 293 cell line
Procedure: Different subunits of GABAA receptor were expressed in cell lines, including human kidney epithelial cell line, 293 cell line or L(tk−) cell line. The cells were cultured in medium, and such cells were used as the cellular model for screening drugs to suppress pain. a subunit, β subunit and γ subunit are indispensable for one complete functional GABAA receptor.
In this example, the inventors established the following cellular models:
(b) simultaneously expressing α1 subunit (GenBank accession number: NM_001127648.1), β3 subunit and γ2 subunit in 293 cell line, forming the GABAA receptor containing α1 subunit; • (c) simultaneously expressing α2 subunit (for the protein sequence, see GenBank accession number NM_000813.2), β3 subunit and γ2 subunit in 293 cell line, forming the GABAA receptor containing α2 subunit;
Each of the (a) to (d) above could form a GABAA receptor with complete function.
Then, the cellular membrane was extracted and the protein concentration was measured. The competitive binding of the substances to be measured and radiolabelled compounds (e.g. 1 nM [^3H]Ro-0151788) were detected respectively to calculate the Ki value of the substances to be measured, see the method described in literature (Ballard T M et al., RO4938581, a novel cognitive enhancer acting at GABAA alpha5 subunit-containing receptors. Psychopharmacology (Berl). 2009 January; 202(1-3): 207-23). If the binding inhibition constant Ki (nM) of α5-GABAA receptor with the candidate substances in experimental group is less than the Ki of the receptor containing other a subunit (α1 subunit, α2 subunit or α3 subunit), then the candidate substance is a potential drugs for preventing, relieving or treating pain. Many methods can be used by those skilled in the art to evaluate the binding capacity of the ligand of α5-GABAA receptor to the α5-GABAA receptor, including but not limiting to the method above.

| Compound | Suppression of heat pain ([1]; oral administration, 3 days after CFA model, 1 hour after administration) | Inverse agonist effect of α5-GABAA receptor [2] | Suppression of neuropathic pain, topical administration ([3]; 100 microliter (1 mg/ml) injected to the feet, 10 days after SNI) | Suppression of neuropathic pain (pain threshold) in rats injected with control siRNA ([3]; oral 3 mg/kg, control siRNA intrathecal, 3 mg/kg) | Suppression of neuropathic pain (pain threshold) in rats injected with siRNA specific to α5 subunit ([3]; oral 3 mg/kg, α5-specific siRNA intrathecal, 3 mg/kg) | Suppression of neuropathic pain (mechanical pain), dose-dependent experiment ([3]; oral 10 mg/kg, 3 mg/kg and 1 mg/kg, 10 to 20 days after SNI, 1 hour after administration) | Binding to α5-GABAA receptor in brain / inhibition of (3H)Ro-15-1788 binding in center [4] | Inhibition rate of the binding of (3H)Ro-15-1788 in center [4] | Passing blood brain barrier [5] | Suppression of heat pain ([1]; 3 mg/kg intraperitoneal, 3 days after CFA, 0.5-3.0 hours after administration, listed as A5I, 3 mg/kg) | Toxicity in Phase II clinical trial [6] | Toxicity in Phase II clinical trial ([6]; listed as A5I) | Effect on treating pain reported in literature [7] | Suppression of neuropathic pain (nociceptive threshold) ([3]; 3 mg/kg) | Suppression of neuropathic pain (nociceptive threshold) ([3]; listed as A5I, 3 mg/kg) | Tolerance on continuous administration [3] | Tolerance on continuous administration ([3]; listed as A5I) | Ki [8] [nM] |
| --- | --- | --- | --- | --- | --- | --- | --- | --- | --- | --- | --- | --- | --- | --- | --- | --- | --- | --- |
| Cn1ncnc1COc1nn2c(-c3cc(CO)on3)nncc2c1C(C)(C)C [MRK016-M3, (3-(3-tert-butyl-2-((2-methyl-2H-1,2,4-triazol-3-yl)methoxy)pyrazolo [1,5-d][1,2,4]triazin-7-yl)isoxazol-5-yl)methanol] | significantly suppress inflammatory pain; also recorded: significantly suppressed pain | significant inverse agonist effect | still efficiently suppressed | significantly suppressed neuropathic pain; also recorded: significantly increased the pain threshold | no obvious effect; also recorded: did not significantly increase the nociceptive threshold | significantly suppressed | not capable of binding the α5-GABAA receptor in brain; also recorded: cannot significantly inhibit; also recorded: could hardly enter into the brain | about 12% | cannot significantly pass blood brain barrier |  |  |  |  |  |  |  |  |  |
| Cc1cc(-c2nnc3c4ccccc4c(OCC4=CC(C)C=N4)nn23)no1 (stereo not drawn) [α5IA] |  |  |  |  |  |  |  |  |  | efficiently inhibit inflammatory pain; also recorded: efficiently treat heat pain | certain toxic problems | renal toxicity | no effect | significantly suppressed neuropathic pain | efficiently suppressed neuropathic pain | did not generate tolerance response | did not produce tolerance | 0.58 |
